Measurements: patent US9708314B2, “Heterocyclic amide compound” (NISSAN CHEMICAL INDUSTRIES, LTD., priority 2013, dated 2017)

What was measured:
Type in all cases: in vivo
[1] = system: Echinochloa oryzacola Vasing.; assay: Test Example 2: herbicidal activity, application during weed generation in submerged conditions; conditions: Eighteenth Table; application herbicide amount 320 g/ha
How it was run: (§1)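 Paddy-type pot test: flooded soil, 4 cm depth, greenhouse 25–30 °C. Emulsion formulation diluted in water, applied to water surface at 1–2 leaf stage; rate expressed as g/ha. Read-out at 3 wk, 0–5 score.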

Monochoria vaginalis = assay: as above; conditions: Eighteenth Table; application herbicide amount 320 g/ha
How it was run: as §1

Scirpus juncoides = assay: as above; conditions: Eighteenth Table; application herbicide amount 320 g/ha
How it was run: as §1

Veronica persica = assay: Test Example 4: herbicidal effect by application to foliage (diluvial soil, plastic box); conditions: for R: herbicidal effect on Veronica persica / herbicidal effect, R (Veronica persica): application to foliage; for R: herbicidal effect on Veronica persica: application herbicide amount 320 g/ha; for herbicidal effect, R (Veronica persica): 320 g/ha
How it was run: (§2)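 Read-out is a 0–5 visual grade of herbicidal ratio (5: ≥90%, almost withered; 0: ≤5%) taken three weeks after treatment. Compound was applied as a diluted emulsion to stem and leaf parts of 14-day greenhouse-grown plants (25° C. to 30° C.) at rates expressed as g/ha.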

[2] = system: transplanted Oryza sativa; assay: Test Example 1: effect on crop, application before weed generation in submerged conditions; conditions: Seventeenth Table; for a: transplanted Oryza sativa (effect on crop grade): Application herbicide amount 320 g/ha; for a (transplanted Oryza sativa) effect on crop grade: application herbicide amount 320 g/ha
How it was run: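 Submerged pot test: alluvial soil, 4 cm water, seeds sown mixed, 2.5-leaf rice transplanted; emulsion in water applied to surface day of sowing, dose g/ha; greenhouse 25–30° C.; 3 wk; 0–5 rating.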

Stellaria media = assay: Test Example 4: herbicidal effect by application to foliage (diluvial soil, plastic box); conditions: application to foliage; for P: herbicidal effect on Stellaria media: application herbicide amount 320 g/ha; for herbicidal effect, P (Stellaria media): 320 g/ha
How it was run: as §2

Amaranthus retroflexus = assay: as above; conditions: application to foliage; for N: herbicidal effect on Amaranthus retroflexus: application herbicide amount 320 g/ha; for herbicidal effect, N (Amaranthus retroflexus): 320 g/ha
How it was run: as §2

Structure (SMILES)	A (Echinochloa oryzicola Vasing.) herbicidal ratio grade [1]	C (Monochoria vaginalis) herbicidal ratio grade (Monochoria vaginalis)	B (Scirpus juncoides) herbicidal ratio grade (Scirpus juncoides)	R (Veronica persica; Application herbicide amount 320 g/ha)	a: transplanted Oryza sativa (effect on crop grade) [2]	R: herbicidal effect on Veronica persica (Veronica persica)	P: herbicidal effect on Stellaria media (Stellaria media)	N: herbicidal effect on Amaranthus retroflexus (Amaranthus retroflexus)	herbicidal effect, R (Veronica persica) (Veronica persica)	herbicidal effect, P (Stellaria media) (Stellaria media)	herbicidal effect, N (Amaranthus retroflexus) (Amaranthus retroflexus)	a (transplanted Oryza sativa) effect on crop grade [2]
Cc1nnc(NC(=O)c2ccc(C(F)(F)F)n3c(CC(=O)NC(C)C)nnc23)o1 [1-061]	0 (Herbicidal ratio of 5% or less (almost no effect))	1 (Herbicidal ratio of 5% or more and less than 20%)	1 (Herbicidal ratio of 5% or more and less than 20%)	5 (Herbicidal ratio of 90% or more (almost completely withered))								
C=CCc1nnc2c(C(=O)Nc3nnco3)ccc(C(F)(F)F)n12 [1-158]	2 (Herbicidal ratio of 20% or more and less than 40%)	0 (Herbicidal ratio of 5% or less (almost no effect))	3 (Herbicidal ratio of 40% or more and less than 70%)		0 (Herbicidal ratio of 5% or less (almost no effect))	4 (Herbicidal ratio of 70% or more and less than 90%)	5 (Herbicidal ratio of 90% or more (almost completely withered))	4 (Herbicidal ratio of 70% or more and less than 90%)				
Cc1nnc(NC(=O)c2ccc(C(F)(F)F)n3c(CC(F)(F)F)nnc23)o1 [1-162]	3 (Herbicidal ratio of 40% or more and less than 70%)	0 (Herbicidal ratio of 5% or less (almost no effect))	1 (Herbicidal ratio of 5% or more and less than 20%)		0 (Herbicidal ratio of 5% or less (almost no effect))	3 (Herbicidal ratio of 40% or more and less than 70%)	3 (Herbicidal ratio of 40% or more and less than 70%)	4 (Herbicidal ratio of 70% or more and less than 90%)				
C#CCN(C)c1nnc2c(C(=O)Nc3nnco3)ccc(C(F)(F)F)n12 [1-163]	4 (Herbicidal ratio of 70% or more and less than 90%)				2 (Herbicidal ratio of 20% or more and less than 40%)	2 (Herbicidal ratio of 20% or more and less than 40%)	4 (Herbicidal ratio of 70% or more and less than 90%)	4 (Herbicidal ratio of 70% or more and less than 90%)				
CN(CCC#N)c1nnc2c(C(=O)Nc3nnco3)ccc(C(F)(F)F)n12 [1-164]	4 (Herbicidal ratio of 70% or more and less than 90%)	4 (Herbicidal ratio of 70% or more and less than 90%)	4 (Herbicidal ratio of 70% or more and less than 90%)		3 (Herbicidal ratio of 40% or more and less than 70%)			5 (Herbicidal ratio of 90% or more (almost completely withered))				
C=CCN(C)c1nnc2c(C(=O)Nc3nnc(C)o3)ccc(C(F)(F)F)n12 [1-166]	2 (Herbicidal ratio of 20% or more and less than 40%)		3 (Herbicidal ratio of 40% or more and less than 70%)		0 (Herbicidal ratio of 5% or less (almost no effect))		4 (Herbicidal ratio of 70% or more and less than 90%)	4 (Herbicidal ratio of 70% or more and less than 90%)				
Cc1nnc(NC(=O)c2ccc(C(F)(F)F)n3c(CC#N)nnc23)o1 [1-168]	2 (Herbicidal ratio of 20% or more and less than 40%)		2 (Herbicidal ratio of 20% or more and less than 40%)			5 (Herbicidal ratio of 90% or more (almost completely withered))	5 (Herbicidal ratio of 90% or more (almost completely withered))	3 (Herbicidal ratio of 40% or more and less than 70%)				
COCCc1nnc2c(C(=O)Nc3nnc(C)o3)ccc(C(F)(F)F)n12 [1-173]	3 (Herbicidal ratio of 40% or more and less than 70%)	2 (Herbicidal ratio of 20% or more and less than 40%)	2 (Herbicidal ratio of 20% or more and less than 40%)			4 (Herbicidal ratio of 70% or more and less than 90%)	5 (Herbicidal ratio of 90% or more (almost completely withered))	5 (Herbicidal ratio of 90% or more (almost completely withered))				
Cn1nnnc1NC(=O)c1ccc(C(F)(F)F)n2c(SC3CCCC3)nnc12 [2-096]	3 (Herbicidal ratio of 40% or more and less than 70%)	3 (Herbicidal ratio of 40% or more and less than 70%)	3 (Herbicidal ratio of 40% or more and less than 70%)		3 (Herbicidal ratio of 40% or more and less than 70%)				3 (Herbicidal ratio of 40% or more and less than 70%)	4 (Herbicidal ratio of 70% or more and less than 90%)	5 (Herbicidal ratio of 90% or more (almost completely withered))	
Cn1nnnc1NC(=O)c1ccc(C(F)(F)F)n2c(SCc3ccc(Cl)nc3)nnc12 [2-097]	0 (Herbicidal ratio of 5% or less (almost no effect))	2 (Herbicidal ratio of 20% or more and less than 40%)	2 (Herbicidal ratio of 20% or more and less than 40%)		1 (Herbicidal ratio of 5% or more and less than 20%)				4 (Herbicidal ratio of 70% or more and less than 90%)	4 (Herbicidal ratio of 70% or more and less than 90%)	3 (Herbicidal ratio of 40% or more and less than 70%)	
CCSc1nnc2c(C(=O)Nc3nnnn3CCOC)ccc(C(F)(F)F)n12 [2-098]	5 (Herbicidal ratio of 90% or more (almost completely withered))	3 (Herbicidal ratio of 40% or more and less than 70%)	4 (Herbicidal ratio of 70% or more and less than 90%)						4 (Herbicidal ratio of 70% or more and less than 90%)	5 (Herbicidal ratio of 90% or more (almost completely withered))	5 (Herbicidal ratio of 90% or more (almost completely withered))	2 (Herbicidal ratio of 20% or more and less than 40%)
CCSc1nnc2c(C(=O)Nc3ncnn3C)ccc(C(F)(F)F)n12 [4-003]									2 (Herbicidal ratio of 20% or more and less than 40%)	4 (Herbicidal ratio of 70% or more and less than 90%)	2 (Herbicidal ratio of 20% or more and less than 40%)	0 (Herbicidal ratio of 5% or less (almost no effect))
